Measurements published in patent US11975099B2, “Ethanol foam sclerosing agent for treating vascular anomalies and preparation method thereof” (QILU HOSPITAL OF SHANDONG UNIVERSITY, priority 2019, dated 2024).

Key:
rabbit ear edge = assay: Animal experiment: rabbit ear edge injection; format: in vivo; settings: 0.5 mL injected, New Zealand white rabbits
Description: Animal experiment: A first experimental group: the experimental subjects were 20 New Zealand white rabbits with the body weight of 1.5 kg, injected with 0.5 mL of absolute ethanol solution. A second experimental group: the experimental subjects were 20 New Zealand white rabbits with the body weight of 1.5 kg, injected with 0.5 mL of the foam sclerosing agent of Embodiment 1. The edges of ears of the experimental subjects in the first experimental group and the second experimental group were all intact before the experiment.

[1] = Plasma experiment (protein coagulation in anticoagulant blood); settings: added to 1 mL fresh human anticoagulant blood in test tube
Description: Plasma experiment: A plasma experiment was performed using absolute ethanol and the sclerosing agent solution of Embodiment 1. As shown in A of FIG. 3, 1 mL of fresh human anticoagulant blood was taken. As shown in C of FIG. 3, absolute ethanol was added to a test tube, and as shown in B of FIG. 3, the sclerosing agent solution of Embodiment 1 was added to a test tube.

Q: For `CCO` [absolute ethanol], which “reaction of ear edge 3 days after the injection” value (rabbit ear edge; 3 days) is on record?
A: the whole ear has obvious hematoma

Q: And the “reaction of ear edge 7 days after the injection” value (rabbit ear edge; 7 days)?
A: the swelling is reduced

Q: And the “reaction of ear edge 25 days after the injection” value (rabbit ear edge; 25 days)?
A: the local blood vessels and some normal tissues are destroyed, resulting in tissue defect of the rabbit ear edge

Q: And the “reaction of ear edge immediately after the injection” value (rabbit ear edge; immediately after injection)?
A: extensive and large-area hematoma appears on the ear edge immediately

Q: And the “coagulation of the protein in the plasma” value [1]?
A: coagulated the protein in the plasma
